Reference: publication PMC12069340 (Frontiers in Cellular and Infection Microbiology, 2025)
Where a name gives a salt, the structure may show the parent alone. Read-outs that look alike come from different tables or passages of the source.

Assays:
[1] = tested on: A/PuertoRico/8/1934 (H1N1) virus; assay: microbe, parasite or virus in culture; format: cell-based, influenza A virus
U937 cells = settings: 20 µM
[2] = Validation screen: cytotoxicity without viral infection; settings: human, uninfected U937 cells
[3] = tested on: A/PuertoRico/8/1934 (H1N1) virus; assay: microbe, parasite or virus in culture; format: cell-based, influenza A virus; settings: Influenza A virus, H1N1, U-937, 48 h
in vitro = settings: human, Relative Viability (%)
[4] = Influenza A virus, H1N1, U-937, 48 h; read-out: NA Inhibition (%)
[5] = Influenza A virus, H1N1, U-937, 48 h, read-out: NA Inhibition (%)

Compound | NA Inhibition (%) ([1]; 20 µM) | Relative Viability (%) (U937 cells) | also measured
Cc1ccsc1C(=CCCN1CCC[C@@H](C(=O)O)C1)c1sccc1C [Tiagabine hydrochloride] | 19.9% |  | Relative Viability (%) (U937 cells; human): 91.7%
MetoclopraMide HCl | -36.9% | 126.3 | 
CN(C)[C@@H](CCOc1cccc2ccccc12)c1ccccc1 [Dapoxetine HCl] |  |  | CC50 at 48 h [2]: 76.1 µM; IC50 [3]: 6.65 µM; viability at 20 µM (in vitro): 110%; inhibition at 20 µM [1, 4]: 63.4%
CCCN[C@H]1CCc2nc(N)sc2C1 [Pramipexole] | -25.0 |  | Relative Viability (%) (U937 cells; human): 91.8
CCCN1C[C@H](CSC)C[C@@H]2c3cccc4[nH]cc(c34)C[C@H]21 [Pergolide mesylate] |  |  | CC50 at 48 h [2]: > 80 µM; IC50 [3]: 7.1 µM; viability at 20 µM (in vitro): 118%; inhibition at 20 µM [1, 4]: 67.8%
Almotriptan Malate | 21.0% | 114.2 | 
Cyclizine 2HCl | -4.6% | 90.9 | 
Paroxetine HCl | 51.2% | 85.1 | 
OC(CNCC(O)C1CCc2cc(F)ccc2O1)C1CCc2cc(F)ccc2O1 (stereo not shown) [Nebivolol] |  |  | CC50 at 48 h [2]: 33.3 µM; IC50 [3]: 9.8 µM; viability at 20 µM (in vitro): 89.4%; inhibition at 20 µM [1, 4]: 66.4%
Gabapentin HCl | -16.1% | 111.9 | 
(+)-Matrine | 9.9% | 109.9 | 
Cc1ccc(N(CC2=NCCN2)c2cccc(O)c2)cc1 [Phentolamine Mesylate] |  |  | CC50 at 48 h [2]: > 80 µM; IC50 [3]: 1 µM; viability at 20 µM (in vitro): 117%; inhibition at 20 µM [1, 5]: 72.3%
Hydroxyzine 2HCl | 18.4% | 101.7 | 
Bambuterol HCl | -2.9% | 102.5 | 
CN1CCc2cc3c(cc2[C@H]1[C@@H]1OC(=O)c2c1ccc1c2OCO1)OCO3 [(+)-Bicuculline] | -11.3% | 98.1 | 
Galanthamine HBr | -13.2% | 108.7 | 

Compound | NA Inhibition (%) ([1]; 20 µM) | Relative Viability (%) (U937 cells) | also measured
Varenicline Tartrate | 6.8% | 108.9 | 
Itopride hydrochloride | 9.1% | 109.7 | 
Naloxone HCl Dihydrate | 27.3% | 113.1 | 
Atipamezole hydrochloride | 58.1% | 119.4 | 
CCCCCCNC(=O)Nc1ccc(S(=O)(=O)Nc2ccc(CCNC[C@H](O)COc3ccc(O)cc3)cc2)cc1 [L755507] | -1.1% | 100.1 | 
CN1[C@@H]2CC[C@H]1C[C@@H](OC(c1ccccc1)c1ccccc1)C2 [Benztropine mesylate] |  |  | CC50 at 48 h [2]: > 80 µM; viability at 20 µM (in vitro): 108%; inhibition at 20 µM [1, 5]: 57.8%
Vortioxetine (Lu AA21004) HBr | 23.8% | 95.3 | 
Succinylcholine Chloride Dihydrate | 13.3% | 99.6 | 
Naftopidil DiHCl | 6.2% | 88.1 | 
PRX-08066 Maleic acid | 20.2% | 92.0 | 
Lorcaserin HCl | 17.8% | 104.4 | 
Ivabradine HCl | -0.1% | 104.6 | 
Synephrine HCl | 10.3% | 99.1 | 
Ondansetron HCl | 4.7% | 98.5 | 
Tetrahydrozoline HCl | 9.5% | 96.0 | 
Cc1c(Cl)c(OCC(=O)N2CCN(C)CC2)nc2sc(C(=O)NC3CC3)c(N)c12 [LY2119620] | 19.0% | 99.3 | 
